{"source": "patent US20110136108A1", "about": "“XBP1(S) Protein Acting as an Adipocyte Differentiation Marker Having a Facility to Regulate Differentiation into Adipocytes, and an Application Therefor” (CATHOLICE UNIVERSITY INDUSTRY ACADEMIC COOPERATION …, priority 2008, published 2011)", "tested_on": "PPARγ2 mRNA", "assay": "PPARγ2 mRNA expression during adipocyte differentiation (real-time PCR)", "assay_type": "cell-based, mouse", "conditions": "SFG-xbp1i cells, 50 μM rosiglitazone in induction medium", "method": "From the cells subjected to differentiation, total RNA was isolated by chloroform extraction and ethanol precipitation (TRIzol Reagent, Invitrogen, Carlsbad, Calif.). Thereafter, the total RNA was used to synthesize cDNA by RT-PCR (M-MLV reverse transcriptase, Promega, MADISON, Wis.). Real-time PCR was performed using a fluorescent probe of SYBR Green (SYBR Green QPCR Master Mix (2×), TAKARA, JAPAN), with cDNA serving as a template. Relative mRNA expression levels were calculated using a comparative Ct method.\nIn this regard, XBP1(S) expression-knock-down 3T3-L1 precursor cells (SFG-xbp1i) were induced to differentiate into adipocytes in the presence of 0 or 50 μM rosiglitazone in an induction medium during which the relative expression levels of PPARγ2 mRNA were measured.", "data": [{"smiles": "CN(CCOc1ccc(CC2SC(=O)NC2=O)cc1)c1ccccn1", "note": "(stereo not shown) [rosiglitazone]", "values": [{"measurement": "expression level of PPARγ2 mRNA relative to absence of rosiglitazone", "value": 20, "unit": "times"}]}]}
